The source of these data is patent US11331299B2, “Medicinal use of serrulatane diterpenes” (The University of Sydney, priority 2016, dated 2022).

In data set [1] the target is T1, Thiopurine S-methyltransferase (h) (Homo sapiens, UniProt P51580).
T1 sequence (P51580 1-245): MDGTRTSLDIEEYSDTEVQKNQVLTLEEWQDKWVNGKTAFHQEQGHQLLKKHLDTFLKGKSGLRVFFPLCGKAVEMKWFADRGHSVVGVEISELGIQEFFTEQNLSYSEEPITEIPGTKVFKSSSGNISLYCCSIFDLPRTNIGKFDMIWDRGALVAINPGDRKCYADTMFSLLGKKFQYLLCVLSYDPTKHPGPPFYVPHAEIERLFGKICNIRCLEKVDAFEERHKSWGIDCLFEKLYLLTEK
The data set can be described thus: Epigenetic enzyme assay, Small molecule methyltransferases. It is filed as biochemical. As to conditions: read-out: % Inhibition of Control Values.

In data set [2] the target is T2, BRD4(1) (h) bromodomain (Homo sapiens, UniProt O60885).
T2 construct: Bromodomain
In words: Epigenetic binding assay, Bromodomain. To be noted: read-out: % Inhibition of Control Specific Binding.

Data set [3] has as its target T3, BRD4(2) (h) bromodomain (Homo sapiens, UniProt O60885).
T3 construct: Bromodomain
The data set can be described thus: Epigenetic binding assay, Bromodomain. As to conditions: for inhibition at 10 µM: read-out: % Inhibition of Control Specific Binding.

Data set [4] concerns Hs695T melanoma cell line. In words: OncoPanel cell proliferation assay (10-day). It is filed as cell-based. As to conditions: Homo sapiens, Hs 695T; for EC50: read-out: Cell Count EC50; for IC50: read-out: Cell Count IC50.
The target in data set [5] is LSD1 (h) (Homo sapiens, UniProt O60341). In words: Epigenetic enzyme assay, Demethylases (KDMs). The format is biochemical. To be noted: read-out: % Inhibition of Control Values.
Data set [6] deals with T4, Chemokine CCR1 (Homo sapiens, UniProt P32246).
T4 construct: expressed in transfected cells; host or cells: Chem-2 cells
T4 sequence (P32246 1-355): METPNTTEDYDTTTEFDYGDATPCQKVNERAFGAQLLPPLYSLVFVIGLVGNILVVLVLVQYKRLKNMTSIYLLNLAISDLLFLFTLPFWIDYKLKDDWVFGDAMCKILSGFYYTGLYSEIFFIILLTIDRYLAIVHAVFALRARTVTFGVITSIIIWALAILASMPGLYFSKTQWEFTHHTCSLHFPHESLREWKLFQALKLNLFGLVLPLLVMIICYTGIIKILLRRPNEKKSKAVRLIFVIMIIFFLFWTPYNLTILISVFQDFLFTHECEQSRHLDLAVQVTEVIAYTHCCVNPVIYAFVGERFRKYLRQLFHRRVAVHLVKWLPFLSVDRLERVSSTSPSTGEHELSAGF
The data set can be described thus: Chemokine CCR1 radio ligand binding. As to conditions: assay year 2015, read-out: % Control Response. The protocol:
The in vitro pharmacological studies were conducted by Eurofins PanLab (Taiwan) using the parameters shown in Table 13 with respect to appropriate literature references.

In data set [7] the target is T5, CYP2C8 (Homo sapiens, UniProt P10632).
T5 construct: Human liver microsomes; from tissue; host or cells: human liver microsomes
T5 sequence (P10632 1-490): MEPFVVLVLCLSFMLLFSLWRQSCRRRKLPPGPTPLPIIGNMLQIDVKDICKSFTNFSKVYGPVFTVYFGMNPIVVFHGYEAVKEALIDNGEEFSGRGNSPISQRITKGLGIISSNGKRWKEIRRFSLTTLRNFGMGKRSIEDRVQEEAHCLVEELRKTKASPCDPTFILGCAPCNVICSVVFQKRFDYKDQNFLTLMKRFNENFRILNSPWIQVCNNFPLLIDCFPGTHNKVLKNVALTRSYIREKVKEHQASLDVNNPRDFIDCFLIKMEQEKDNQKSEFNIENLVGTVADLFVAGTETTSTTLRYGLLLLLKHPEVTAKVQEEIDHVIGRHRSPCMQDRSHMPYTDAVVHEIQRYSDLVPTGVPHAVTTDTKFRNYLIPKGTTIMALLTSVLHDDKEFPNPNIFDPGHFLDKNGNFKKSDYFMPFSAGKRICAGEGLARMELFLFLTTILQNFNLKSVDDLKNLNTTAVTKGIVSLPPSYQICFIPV
In words: Cytochrome P450 Inhibition (CYP panel). It is filed as in vitro ADME. As to conditions: probe paclitaxel.

The target in data set [8] is USP 7 (h) (Homo sapiens, UniProt Q93009). In words: Epigenetic enzyme assay, Ubiquitin modifying enzymes. The format is biochemical. To be noted: 10 μM; read-out: % Inhibition of Control Values.
Chain of USP 7 (h) (Q93009 whole entry): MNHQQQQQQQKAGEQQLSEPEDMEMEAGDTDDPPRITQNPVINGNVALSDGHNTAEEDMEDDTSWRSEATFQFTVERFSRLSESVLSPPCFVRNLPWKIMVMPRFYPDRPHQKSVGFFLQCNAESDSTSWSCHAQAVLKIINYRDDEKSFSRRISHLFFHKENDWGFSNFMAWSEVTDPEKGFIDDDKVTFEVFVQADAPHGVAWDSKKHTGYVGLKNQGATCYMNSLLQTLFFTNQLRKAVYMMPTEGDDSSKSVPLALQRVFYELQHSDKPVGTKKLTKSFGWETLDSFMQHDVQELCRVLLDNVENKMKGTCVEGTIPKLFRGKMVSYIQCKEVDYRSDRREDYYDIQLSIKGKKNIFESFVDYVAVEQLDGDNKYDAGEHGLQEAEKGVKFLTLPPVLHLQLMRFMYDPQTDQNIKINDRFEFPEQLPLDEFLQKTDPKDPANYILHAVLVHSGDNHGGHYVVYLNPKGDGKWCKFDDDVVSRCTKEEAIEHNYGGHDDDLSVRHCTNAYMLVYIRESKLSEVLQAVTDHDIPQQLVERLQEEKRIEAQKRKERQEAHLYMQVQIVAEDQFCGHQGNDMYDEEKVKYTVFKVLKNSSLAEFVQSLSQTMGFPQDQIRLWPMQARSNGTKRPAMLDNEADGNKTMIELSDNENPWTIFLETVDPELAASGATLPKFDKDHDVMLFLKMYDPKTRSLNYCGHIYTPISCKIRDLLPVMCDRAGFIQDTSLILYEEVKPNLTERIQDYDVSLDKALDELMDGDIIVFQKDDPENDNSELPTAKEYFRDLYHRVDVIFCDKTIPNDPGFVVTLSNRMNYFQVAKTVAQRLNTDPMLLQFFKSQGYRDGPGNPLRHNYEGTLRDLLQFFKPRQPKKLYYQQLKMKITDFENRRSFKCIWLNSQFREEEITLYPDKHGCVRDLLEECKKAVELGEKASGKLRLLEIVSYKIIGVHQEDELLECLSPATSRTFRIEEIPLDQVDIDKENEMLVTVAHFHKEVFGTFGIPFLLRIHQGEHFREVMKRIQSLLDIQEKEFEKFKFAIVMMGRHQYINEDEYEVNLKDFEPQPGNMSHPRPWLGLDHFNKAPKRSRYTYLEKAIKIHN
Data set [9] deals with T6, PB1(3) (h) bromodomain (Homo sapiens, UniProt Q86U86).
T6 construct: Bromodomain
T6 sequence (Q86U86 381-487 limits assumed): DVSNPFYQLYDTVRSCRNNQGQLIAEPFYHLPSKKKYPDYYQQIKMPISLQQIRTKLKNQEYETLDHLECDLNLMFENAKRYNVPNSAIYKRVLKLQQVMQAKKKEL
In words: Epigenetic binding assay, Bromodomain. To be noted: read-out: % Inhibition of Control Specific Binding.

Data set [10] deals with MDA-MB-415. The data set can be described thus: OncoPanel cell proliferation assay (10-day). The format is cell-based, human. To be noted: for EC50 / GI50 / IC50: Homo sapiens, MDA-MB-415, Breast; for EC50: read-out: Cell Count EC50; for GI50: read-out: Cell Count GI50; for IC50: read-out: Cell Count IC50.
Data set [11] deals with T7, Catechol O-methyltransferase (h) (Homo sapiens, UniProt P21964).
T7 sequence (P21964 1-271): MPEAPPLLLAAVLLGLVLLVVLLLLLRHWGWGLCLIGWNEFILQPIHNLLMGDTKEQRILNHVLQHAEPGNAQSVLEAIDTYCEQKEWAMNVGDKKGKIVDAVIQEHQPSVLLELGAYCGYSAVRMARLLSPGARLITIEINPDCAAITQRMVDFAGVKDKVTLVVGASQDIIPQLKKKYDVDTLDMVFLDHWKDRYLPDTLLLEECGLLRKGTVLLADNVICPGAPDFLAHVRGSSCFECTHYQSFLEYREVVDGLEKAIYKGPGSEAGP
In words: Epigenetic enzyme assay, Small molecule methyltransferases. As to conditions: read-out: % Inhibition of Control Values. The format is biochemical.

In data set [12] the test system is KG-1 leukemia cell line. The data set can be described thus: OncoPanel cell proliferation assay (10-day). The format is cell-based. To be noted: Homo sapiens; for EC50: read-out: Cell Count EC50; for IC50: read-out: Cell Count IC50.
In data set [13] the target is T8, CYP2C19 (Homo sapiens, UniProt P33261).
T8 construct: Human liver microsomes; from tissue; host or cells: human liver microsomes
T8 sequence (P33261 whole entry): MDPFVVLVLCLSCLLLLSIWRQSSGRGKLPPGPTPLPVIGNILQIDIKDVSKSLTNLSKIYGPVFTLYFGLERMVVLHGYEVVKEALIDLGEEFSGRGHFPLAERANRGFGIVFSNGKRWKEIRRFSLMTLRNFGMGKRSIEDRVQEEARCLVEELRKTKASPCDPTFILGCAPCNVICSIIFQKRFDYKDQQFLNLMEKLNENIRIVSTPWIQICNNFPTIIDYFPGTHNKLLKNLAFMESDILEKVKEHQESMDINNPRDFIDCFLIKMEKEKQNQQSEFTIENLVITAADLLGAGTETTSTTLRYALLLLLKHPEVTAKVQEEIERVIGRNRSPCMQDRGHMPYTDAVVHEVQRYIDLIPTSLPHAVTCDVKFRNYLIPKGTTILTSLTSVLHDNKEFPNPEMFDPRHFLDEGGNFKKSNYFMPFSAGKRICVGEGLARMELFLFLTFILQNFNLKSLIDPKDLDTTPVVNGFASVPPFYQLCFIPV
In words: Cytochrome P450 Inhibition (CYP panel). It is filed as in vitro ADME. As to conditions: human liver microsomes, probe omeprazole. (In general: Microsomes from liver hold many membrane-bound enzymes, among them those of drug oxidation.)

The target of data set [14] is T9, TRIM 33 (h) PHD domain (Homo sapiens, UniProt Q9UPN9).
T9 construct: Eurofins CEREP (France), contract laboratory
T9 sequence (Q9UPN9 887-934 limits assumed): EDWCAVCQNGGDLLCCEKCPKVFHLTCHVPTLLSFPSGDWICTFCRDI
In words: Epigenetic binding assay, PHD domain. As to conditions: for inhibition at 10 µM: read-out: % Inhibition of Control Specific Binding.

Data set [15] deals with PKBbeta/AKT2(h) (substrate histone H3 full length) (Homo sapiens, UniProt P31751). In words: Epigenetic enzyme assay, Kinases. The format is biochemical. To be noted: read-out: % Inhibition of Control Values.
Chain of PKBbeta/AKT2(h) (substrate histone H3 full length) (P31751 whole entry): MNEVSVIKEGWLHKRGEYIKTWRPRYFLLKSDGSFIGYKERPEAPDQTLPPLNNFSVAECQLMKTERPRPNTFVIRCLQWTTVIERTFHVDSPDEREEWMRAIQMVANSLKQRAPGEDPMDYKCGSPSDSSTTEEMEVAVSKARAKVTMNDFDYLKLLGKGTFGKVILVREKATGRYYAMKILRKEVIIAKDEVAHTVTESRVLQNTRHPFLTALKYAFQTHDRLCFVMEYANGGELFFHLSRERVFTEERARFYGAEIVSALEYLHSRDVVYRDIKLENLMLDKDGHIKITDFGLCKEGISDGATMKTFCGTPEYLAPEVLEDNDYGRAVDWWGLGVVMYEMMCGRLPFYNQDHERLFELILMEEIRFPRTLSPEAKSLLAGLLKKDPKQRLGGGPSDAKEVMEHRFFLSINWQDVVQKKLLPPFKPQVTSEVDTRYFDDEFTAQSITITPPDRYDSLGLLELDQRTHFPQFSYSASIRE
Setting [16] is: Skin (Melanoma), read-out: Cell Count GI50.
Setting [17] is: human, human liver microsomes, read-out: % inhibition.
Where [18] appears, read: CYP2C8 (paclitaxel sub.), Human liver microsomes, read-out: % Inhibition of Control Values.
[19] abbreviates: KG-1, Leukemia, read-out: Cell Count GI50.
The mark [20] stands for this setting: CYP2C19 (omeprazole sub.), Human liver microsomes, read-out: % Inhibition of Control Values.

As usually defined, the inhibition is the change of the read-out against control, counted positive when it falls. What is called IC50 is the point on the concentration scale where inhibition reaches its midpoint. For orientation: GI50 means the concentration that inhibits growth by half. A word on the EC50: it is the concentration needed to bring the measured effect to its halfway point.

Where two headings read alike, the source gives them in different places.

In the case of `CC(C)=CCC[C@H](CO)[C@@H]1CC[C@@H](C)c2c1cc(C)c(O)c2O` [Compound 1, 7,8,18-trihydroxyserrulat-14-ene], the inhibition at 10 µM in data set [1] was 40%; in data set [2], 49%; in [3] (10 μM), 76%; in [5] it was 10%; in data set [7] (setting [18]), 76%; in data set [8], -18%. Besides, the inhibition at 10 µM was 38% in data set [9]; 6% in data set [11]; 90% in data set [13] (setting [20]); 59% in data set [14]; 13% in data set [15]. Further, the “% Inhibition of Control Specific Binding” value in [3] (10 μM) is “significant inhibitory activity”; in data set [14] (10 μM) it was “good inhibitory activity”. Besides, the IC50 in data set [3] (Table 9, inhibition/concentration-response curve) came to 5.6 µM; in [4] (Skin (Melanoma)), 1.27 µM; in data set [10] it was 1.02 µM; in data set [12] (KG-1, Leukemia), 0.12 µM. The GI50 in [4] (calculated on a weight-weight basis, read-out: GI50) was 0.37 µg/mL; in data set [4] (setting [16]) it was 1.16 µM; in data set [10], 1 µM; in [12] (setting [19]), 0.11 µM; in data set [12] (read-out: GI50), 0.11 µM. Moreover, the EC50 in [4] (Skin (Melanoma)) worked out at 1.18 µM; in [10], 1.02 µM; in data set [12] (KG-1, Leukemia) it was 0.12 µM. Also, the remaining activity at 10 µM in [6] amounted to 33%. For the same compound, the inhibition at 1 µM was 12 to 24% in data set [7] (setting [17]), 14% in data set [7] (setting [18]), 25 to 37% in [13] (read-out: % inhibition) and 37% in [13] (setting [20]). For the same compound, the “Relative cell count (%) Mean” value in data set [10] (3.00E+00 microM) came out at 1.3%; in data set [10] (3.00E+01 microM) it was 0.2%; in data set [10] (3.01E−01 microM), 100.2%; in [10] (3.01E−02 microM) it was 93.4%; in [10] (3.02E−03 microM), 100.0%; in [10] (9.49E+00 microM) it was 0.3%. For the same compound, the “Relative cell count (%) Mean” value worked out at 62.3% in data set [10] (9.51E−01 microM), 98.1% in data set [10] (9.52E−02 microM), 98.0% in data set [10] (9.53E−03 microM) and 90.2% in data set [10] (9.55E−04 microM).

Regarding `CC(C)=CCC[C@H](C)[C@@H]1CC[C@@H](C)c2c1cc(C)c(O)c2O` [Compound 4, 7,8-dihydroxyserrulat-14-ene], the EC50 in [4] (Skin (Melanoma)) was 5 µM; in data set [10], 28.5 µM; in data set [12] (KG-1, Leukemia), 13.3 µM. The GI50 in [4] (setting [16]) came out at 4.02 µM; in data set [10] it was 27.4 µM; in data set [12] (setting [19]) it was 13.1 µM. Also, the IC50 is 5.18 µM in data set [4] (Skin (Melanoma)); 28.5 µM in [10]; 13.3 µM in [12] (KG-1, Leukemia). The inhibition at 1 µM in [7] (setting [17]) is 12 to 24%; in data set [7] (setting [18]) it was 24%; in [13] (read-out: % inhibition) it was 25 to 37%; in data set [13] (setting [20]), 25%. Moreover, the inhibition at 10 µM in data set [7] (setting [18]) was determined as 61%; in [13] (setting [20]), 78%.

`CC(C)=CCC[C@@H]1COc2c(C)cc(O)c3c2[C@H]1CC[C@H]3C` [Compound 3, 5,18-epoxy-8-hydroxyserrulat-14-ene]: the inhibition at 10 µM is 19% in data set [1]; 8% in data set [2]; 13% in [3] (10 μM); -3% in data set [5]; 9% in data set [8]; 6% in data set [9]. Further, the values for the inhibition at 10 µM in data set [11], in data set [14] and in data set [15] were 0%, -2% and 12%, respectively. The remaining activity at 10 µM in data set [6] is -5%.

Consider `CC(C)=CCC[C@@H]1C(O)Oc2c(C)cc(O)c3c2[C@H]1CC[C@H]3C` (stereo partly drawn) [Compound 2, 5,18-epoxyserrulat-14-en-8,18-diol], for which the inhibition at 10 µM is 28% in data set [1]; 11% in [2]; 16% in data set [3] (10 μM); 10% in data set [5]; 52% in data set [7] (setting [18]); -14% in [8]. The inhibition at 10 µM in data set [9] is 13%; in [11] it was 1%; in data set [13] (setting [20]) it was 73%; in data set [14] it was 3%; in data set [15], 11%. Moreover, the EC50 in data set [4] (Skin (Melanoma)) was 9.07 µM; in [10], 11.5 µM; in data set [12] (KG-1, Leukemia), 11.3 µM. Also, the figures for the GI50 in data set [4] (setting [16]), in data set [10] and in [12] (setting [19]) were 8.99 µM, 10.8 µM and 11.9 µM, respectively. The IC50 was found to be 9.48 µM in [4] (Skin (Melanoma)); 11.5 µM in [10]; 12 µM in data set [12] (KG-1, Leukemia). In addition, the remaining activity at 10 µM in data set [6] was -3%. The inhibition at 1 µM is 12 to 24% in [7] (setting [17]), 12% in data set [7] (setting [18]), 25 to 37% in data set [13] (read-out: % inhibition) and 34% in [13] (setting [20]).
